For one assay, the target named is T1, AR (Rattus norvegicus, UniProt P15207).
T1 sequence (P15207 1-902): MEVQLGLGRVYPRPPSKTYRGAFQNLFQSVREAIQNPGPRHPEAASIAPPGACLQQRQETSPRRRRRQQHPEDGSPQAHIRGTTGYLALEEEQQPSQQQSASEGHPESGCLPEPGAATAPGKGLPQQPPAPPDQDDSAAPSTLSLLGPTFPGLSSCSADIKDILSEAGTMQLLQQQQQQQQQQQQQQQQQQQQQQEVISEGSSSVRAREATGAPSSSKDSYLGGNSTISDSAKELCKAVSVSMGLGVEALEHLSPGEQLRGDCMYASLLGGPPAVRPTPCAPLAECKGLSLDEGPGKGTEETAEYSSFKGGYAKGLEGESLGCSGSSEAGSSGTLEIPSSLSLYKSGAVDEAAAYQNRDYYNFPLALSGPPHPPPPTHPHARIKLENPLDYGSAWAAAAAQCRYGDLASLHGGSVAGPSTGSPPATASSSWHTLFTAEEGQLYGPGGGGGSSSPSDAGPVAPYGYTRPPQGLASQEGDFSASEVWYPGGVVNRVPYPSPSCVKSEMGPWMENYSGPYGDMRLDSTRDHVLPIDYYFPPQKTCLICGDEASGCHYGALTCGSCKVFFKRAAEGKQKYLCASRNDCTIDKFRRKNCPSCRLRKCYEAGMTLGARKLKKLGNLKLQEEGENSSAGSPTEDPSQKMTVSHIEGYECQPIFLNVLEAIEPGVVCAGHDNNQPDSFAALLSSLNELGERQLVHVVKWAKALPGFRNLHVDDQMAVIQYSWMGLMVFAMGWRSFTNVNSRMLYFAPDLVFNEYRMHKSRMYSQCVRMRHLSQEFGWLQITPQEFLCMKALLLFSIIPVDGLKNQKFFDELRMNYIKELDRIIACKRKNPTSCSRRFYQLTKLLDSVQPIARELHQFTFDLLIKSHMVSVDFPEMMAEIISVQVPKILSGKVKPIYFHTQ
Conditions: castrated rats. The text has this: The activity of compounds of the present invention as AR agonists was investigated in an immature male rat model, a recognized test of anabolic effects in muscle and sustaining effects in sex organs for a given compound, as described in L. G. Hershberger et al., Proc. Soc. […] Biol. Med., 83, 175 (1953); B. L. Beyler et al, “Methods for evaluating anabolic and catabolic agents in laboratory animals”, J. Amer. Med. Women's Ass., 23, 708 (1968); H. Fukuda et al., “Investigations of the levator ani muscle as an anabolic steroid assay”, Nago Dai. Yak. Ken. Nem. 14, 84 (1966) the disclosures of which are herein incorporated by reference.
The basis of this assay lies in the well-defined action of androgenic agents on the maintenance and growth of muscle tissues and sexual accessory organs in animals and man. […] J. Anat. […] Ital. Biol. Sper. […] II. […] Ital. Biol. Sper. 42, 1600 (1966); A. Boris et al., Steroids 15, 61 (1970). As described above, the effects of androgens on maintenance of male sexual accessory organs, such as the prostate and seminal vesicles, is well described. Castration results in rapid involution and atrophy of the prostate and seminal vesicles. This effect can be reversed by exogenous addition of androgens. […]

For another assay, the target named is glucocorticoid receptor (Homo sapiens, UniProt P04150). The conditions noted are these: concentration ≦10 μM; A549 cells, 10 ng/mL PMA, 7 h. As to the method: The AP-1 assay is a cell-based luciferase reporter assay. A549 cells, which contain endogenous glucocorticoid receptor, were stably transfected with an AP-1 DNA binding site attached to the luciferase gene. Cells are then grown in RPMI+10% fetal calf serum (charcoal-treated)+Penicillin/Streptomycin with 0.5 mg/mL geneticin. Cells are plated the day before the assay at approximately 40000 cells/well. On assay day, the media is removed by aspiration and 20 μL assay buffer (RPMI without phenol red+10% FCS (charcoal-treated)+Pen/Strep) is added to each well. At this point either 20 μL assay buffer (control experiments), the compounds of the present invention (“test compounds”) (dissolved in DMSO and added at varying concentrations) or dexamethasome (100 nM in DMSO, positive control) are added to each well. The plates are then pre-incubated for 15 min at 37° C., followed by stimulation of the cells with 10 ng/mL PMA. The plates are then incubated for 7 h at 37° C. after which 40 μL luciferase substrate reagent is added to each well. Activity is measured by analysis in a luminometer as compared to control experiments treated with buffer or dexamethasome.
Sequence of glucocorticoid receptor (P04150 whole entry): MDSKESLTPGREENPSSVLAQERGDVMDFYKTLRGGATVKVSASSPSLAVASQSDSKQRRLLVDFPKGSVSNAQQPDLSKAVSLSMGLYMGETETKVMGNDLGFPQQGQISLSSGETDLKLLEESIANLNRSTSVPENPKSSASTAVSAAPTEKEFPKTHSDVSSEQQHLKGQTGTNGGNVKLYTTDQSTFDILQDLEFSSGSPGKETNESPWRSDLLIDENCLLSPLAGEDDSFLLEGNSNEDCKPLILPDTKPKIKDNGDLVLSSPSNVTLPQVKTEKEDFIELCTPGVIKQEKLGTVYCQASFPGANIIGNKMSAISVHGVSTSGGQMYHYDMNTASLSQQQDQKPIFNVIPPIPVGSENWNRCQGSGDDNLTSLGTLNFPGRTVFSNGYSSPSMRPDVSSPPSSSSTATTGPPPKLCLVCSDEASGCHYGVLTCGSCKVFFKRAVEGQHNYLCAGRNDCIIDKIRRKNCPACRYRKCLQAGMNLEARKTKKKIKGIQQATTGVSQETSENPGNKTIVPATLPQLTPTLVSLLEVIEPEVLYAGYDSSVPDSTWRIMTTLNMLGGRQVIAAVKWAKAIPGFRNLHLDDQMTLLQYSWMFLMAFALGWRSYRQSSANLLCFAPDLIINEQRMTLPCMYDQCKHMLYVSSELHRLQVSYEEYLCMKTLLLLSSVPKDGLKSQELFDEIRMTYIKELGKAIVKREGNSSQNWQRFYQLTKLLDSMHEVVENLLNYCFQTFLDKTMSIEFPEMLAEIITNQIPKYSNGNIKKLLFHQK

The target of the next assay is wild type AR. The conditions noted are these: read-out: Kd for [3H]-DHT; MDA 453 cells (wild type AR), Scatchard analysis. The text has this:
For the saturation analysis, the difference between the total binding and the non-specific binding, was defined as specific binding. […] See e.g. D. Rodbard, Mathematics and statistics of ligand assays: an illustrated guide: In: J. Langon and J. J. Clapp, eds., Ligand Assay, Masson Publishing U.S.A., Inc., New York, pp. 45-99, (1981), the disclosure of which is herein incorporated by reference.
Two replicates were used for each sample.
[formula] After correcting for non-specific binding, IC50 values were determined. […] C2C12 Mouse Myoblast Transactivation Assay

One may read the Kd as the free concentration of one partner at which half of the binding sites on the other are occupied at equilibrium, for simple one-to-one binding.

Consider `CCC(=O)O[C@H]1CC[C@H]2[C@@H]3CCC4=CC(=O)CC[C@]4(C)[C@H]3CC[C@]12C` [TP, testosterone propionate], for which the “EC50 (increase in organ weight)” value on AR is given as ~0.03 mg. Also, the “potency relative to free T” value on AR (organ weight increase) is on record as 10-30 fold. As to `C[C@@H]1C[C@H]2[C@@H]3CCC4=CC(=O)C=C[C@]4(C)[C@@]3(F)[C@@H](O)C[C@]2(C)[C@@]1(O)C(=O)CO` [dexamethasone], the “% inhibition of the AP-1 reporter system vs buffer control with PMA” value at glucocorticoid receptor was 65%. On to “tritiated dihydrotestosterone [[^3H]-DHT]”, for which the Kd on wild type AR worked out at 0.7 nM.

For the origin of these results see patent US7732480B2, “Bicyclic compounds as modulators of androgen receptor function and method” (Bristol-Myers Squibb Company, priority 2004, dated 2010).
